Assay results published in patent USRE50528E1, “Compounds and compositions for modulating EGFR mutant kinase activities” (Yuhan Corporation, priority 2014, dated 2025).
pIC50: −log10 of the molar value.

Columns and labels:
[1] = target: T1, EGFR mutant Del19 (E746-A750) (Homo sapiens, UniProt P00533, DEL746-750); assay: Kinase inhibition assay, EGFR del E746-A750; type: biochemical; details: read-out: EGFR mutants Del19 (E746-A750);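 note: truncated human EGFR mutant kinase, two-hour preincubation with compound, then one-hour reaction with ATP and ULight-PolyGT peptide, LANCE Europium-antibody phosphorylation readout, IC50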
T1 construct: truncated human JAK3, EGFR mutants such as del E746-A750; purchased Carna Biosciences

EGFR mutant Del19/T790M = target: T2, EGFR mutant Del19/T790M (Homo sapiens, UniProt P00533, DEL746-750/T790M); assay: Kinase inhibition assay, EGFR del E746-A750/T790M; type: biochemical; details: read-out: EGFR mutants Del19/T790M
T2 construct: truncated human JAK3, EGFR mutants such as del E746-A750; purchased Carna Biosciences

EGFR mutant L858R/T790M = target: T3, EGFR mutant L858R/T790M (Homo sapiens, UniProt P00533, L858R/T790M); assay: Kinase inhibition assay, EGFR L858R/T790M; type: biochemical; details: read-out: EGFR mutants L858R/T790M;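 note: truncated human enzyme preincubated two hours with compound, then one hour with one millimolar ATP and ULight-PolyGT peptide, Europium-labeled antibody detection, IC50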
T3 construct: truncated human JAK3, EGFR mutants such as del E746-A750; purchased Carna Biosciences

EGFR mutant L858R = target: T4, EGFR mutant L858R (Homo sapiens, UniProt P00533, L858R); assay: Kinase inhibition assay, EGFR L858R; type: biochemical; details: read-out: EGFR mutants L858R;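 note: truncated human EGFR L858R kinase with compound preincubation, ULight-PolyGT peptide phosphorylation read by Europium-antibody Lance detection, IC50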
T4 construct: truncated human JAK3, EGFR mutants such as del E746-A750; purchased Carna Biosciences

EGFR mutant T790M = target: T5, EGFR mutant T790M (Homo sapiens, UniProt P00533, T790M); assay: Kinase inhibition assay, EGFR mutant T790M; details: biochemical potency;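 note: truncated human EGFR mutant enzyme preincubated two hours with compound, then ATP plus ULight-PolyGT peptide for one hour, Europium-labeled antibody LANCE detection, IC50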
T5 construct: truncated human JAK3, EGFR mutants such as del E746-A750; purchased Carna Biosciences

SYK = target: T6, SYK (Homo sapiens, UniProt P43405); assay: Kinase inhibition assay, SYK; type: biochemical; details: biochemical potency;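 note: purified full-length human SYK pre-incubated 30 min with compound, then ULight-TK peptide phosphorylation for 1 h, detected with Europium-labeled antibody in Lance buffer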
T6 construct: Purified human, full-length SYK, KDR; purchased Carna Biosciences

T2 sequence (P00533 with tags, fused parts or gaps DEL746-750/T790M limits assumed): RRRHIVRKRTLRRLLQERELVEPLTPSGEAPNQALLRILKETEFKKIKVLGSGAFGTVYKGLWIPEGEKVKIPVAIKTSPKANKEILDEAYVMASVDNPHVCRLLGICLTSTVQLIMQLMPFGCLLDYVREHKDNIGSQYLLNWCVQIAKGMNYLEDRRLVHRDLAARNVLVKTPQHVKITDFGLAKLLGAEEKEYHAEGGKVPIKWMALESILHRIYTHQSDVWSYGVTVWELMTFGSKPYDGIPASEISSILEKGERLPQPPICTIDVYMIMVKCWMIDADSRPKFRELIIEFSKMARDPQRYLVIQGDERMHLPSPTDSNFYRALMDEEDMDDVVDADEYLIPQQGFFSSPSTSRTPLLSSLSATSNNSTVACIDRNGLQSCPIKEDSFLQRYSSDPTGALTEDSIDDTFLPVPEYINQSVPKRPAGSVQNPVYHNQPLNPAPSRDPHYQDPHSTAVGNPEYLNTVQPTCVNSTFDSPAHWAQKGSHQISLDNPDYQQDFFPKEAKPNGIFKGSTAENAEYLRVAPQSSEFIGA
T3 sequence (P00533 669-1210 T790M/L858R limits assumed): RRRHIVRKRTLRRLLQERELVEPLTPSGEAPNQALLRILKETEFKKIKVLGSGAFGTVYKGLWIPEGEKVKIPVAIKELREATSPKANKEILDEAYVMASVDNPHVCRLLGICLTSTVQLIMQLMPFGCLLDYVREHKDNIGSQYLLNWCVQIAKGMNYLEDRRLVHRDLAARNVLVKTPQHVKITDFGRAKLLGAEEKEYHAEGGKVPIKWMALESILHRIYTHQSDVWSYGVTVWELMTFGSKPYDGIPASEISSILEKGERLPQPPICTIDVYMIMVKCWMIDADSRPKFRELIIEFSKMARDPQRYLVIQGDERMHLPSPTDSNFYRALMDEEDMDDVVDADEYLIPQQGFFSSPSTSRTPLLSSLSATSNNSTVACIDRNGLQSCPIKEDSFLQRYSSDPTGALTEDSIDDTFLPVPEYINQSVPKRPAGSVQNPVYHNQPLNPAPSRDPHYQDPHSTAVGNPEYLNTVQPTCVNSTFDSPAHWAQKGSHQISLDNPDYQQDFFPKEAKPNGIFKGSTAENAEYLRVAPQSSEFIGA
T1 sequence (P00533 with tags, fused parts or gaps DEL746-750 limits assumed): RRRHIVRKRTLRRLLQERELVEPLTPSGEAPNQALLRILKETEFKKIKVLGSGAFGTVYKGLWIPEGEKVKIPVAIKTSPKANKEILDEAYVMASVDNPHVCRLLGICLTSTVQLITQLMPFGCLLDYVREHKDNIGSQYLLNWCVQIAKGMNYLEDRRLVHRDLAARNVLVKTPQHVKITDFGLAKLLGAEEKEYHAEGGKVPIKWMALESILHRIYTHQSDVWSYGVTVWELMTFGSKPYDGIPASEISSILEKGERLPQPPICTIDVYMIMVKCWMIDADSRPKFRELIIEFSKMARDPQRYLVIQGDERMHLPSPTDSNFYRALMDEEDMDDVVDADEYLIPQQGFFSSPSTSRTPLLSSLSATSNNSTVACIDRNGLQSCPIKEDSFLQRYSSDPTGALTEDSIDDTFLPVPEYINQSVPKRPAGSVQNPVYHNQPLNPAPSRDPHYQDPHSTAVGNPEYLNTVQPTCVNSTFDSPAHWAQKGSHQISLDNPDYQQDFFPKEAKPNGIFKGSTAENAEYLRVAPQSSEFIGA
T4 sequence (P00533 669-1210 L858R limits assumed): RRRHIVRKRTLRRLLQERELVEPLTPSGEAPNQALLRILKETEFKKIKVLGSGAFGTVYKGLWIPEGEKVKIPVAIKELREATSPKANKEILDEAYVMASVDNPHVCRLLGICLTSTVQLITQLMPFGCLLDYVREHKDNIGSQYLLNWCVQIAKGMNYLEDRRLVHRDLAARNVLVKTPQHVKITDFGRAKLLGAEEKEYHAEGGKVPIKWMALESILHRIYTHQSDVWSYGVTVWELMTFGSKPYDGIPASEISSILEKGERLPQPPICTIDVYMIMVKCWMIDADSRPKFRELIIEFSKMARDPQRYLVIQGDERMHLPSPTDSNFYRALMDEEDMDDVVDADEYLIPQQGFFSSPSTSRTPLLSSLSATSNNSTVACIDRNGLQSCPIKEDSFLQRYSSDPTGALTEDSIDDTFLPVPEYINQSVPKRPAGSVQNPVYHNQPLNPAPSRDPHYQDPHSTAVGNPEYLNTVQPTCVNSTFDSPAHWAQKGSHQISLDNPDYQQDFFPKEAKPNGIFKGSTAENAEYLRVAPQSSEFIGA
T5 sequence (P00533 669-1210 T790M limits assumed): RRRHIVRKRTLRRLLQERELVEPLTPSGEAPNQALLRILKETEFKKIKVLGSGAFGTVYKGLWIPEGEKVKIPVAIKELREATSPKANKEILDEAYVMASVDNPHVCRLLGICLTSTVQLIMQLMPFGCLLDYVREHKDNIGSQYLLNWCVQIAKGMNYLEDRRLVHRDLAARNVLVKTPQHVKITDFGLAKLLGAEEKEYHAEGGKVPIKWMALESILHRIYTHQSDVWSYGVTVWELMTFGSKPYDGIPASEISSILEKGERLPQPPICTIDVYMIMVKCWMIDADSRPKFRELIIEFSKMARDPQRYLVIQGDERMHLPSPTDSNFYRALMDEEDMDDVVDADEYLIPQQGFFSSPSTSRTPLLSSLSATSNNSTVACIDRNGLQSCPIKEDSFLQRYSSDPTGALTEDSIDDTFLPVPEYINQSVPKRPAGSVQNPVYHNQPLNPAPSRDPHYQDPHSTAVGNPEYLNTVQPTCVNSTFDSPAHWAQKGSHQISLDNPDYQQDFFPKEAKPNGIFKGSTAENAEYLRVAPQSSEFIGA

pIC50 [1]	pIC50 (EGFR mutant Del19/T790M)	pIC50 (EGFR mutant L858R/T790M)	pIC50 (EGFR mutant L858R)	pIC50 (EGFR mutant T790M)	pIC50 (SYK)	Compound
6.70 to 7.70	6.70 to 7.70	6.70 to 7.70	6.70 to 7.70	–	–	C=CC(=O)Nc1cc(Nc2nccc(-n3nc(C)c(CN4CCC4)c3C)n2)c(OC)cc1N1CCOCC1 [Compound 70, N-(5-(4-(4-(azetidin-1-ylmethyl)-3,5-dimethyl-1H-pyrazol-1-yl)pyrimidin-2-ylamino)-4-methoxy-2-morpholinophenyl)acrylamide]
> 7.70	> 7.70	6.70 to 7.70	6.70 to 7.70	> 7.70	–	C=CC(=O)Nc1cc(Nc2nccc(-n3ccc(-c4ccccc4)n3)n2)c(OC)cc1N1CCN(C)CC1 [Compound 85, N-(4-methoxy-2-(4-methylpiperazin-1-yl)-5-(4-(3-phenyl-1H-pyrazol-1-yl)pyrimidin-2-ylamino)phenyl)acrylamide]
6.70 to 7.70	> 7.70	> 7.70	6.70 to 7.70	6.70 to 7.70	–	C=CC(=O)Nc1cc(Nc2nccc(-n3cc(CN(C)C)c(-c4cc(C)ccc4C)n3)n2)c(OC)cc1N1CCOCC1 [Compound 89, N-(5-(4-(4-((dimethylamino)methyl)-3-(2,5-dimethylphenyl)-1H-pyrazol-1-yl)pyrimidin-2-ylamino)-4-methoxy-2-morpholinophenyl)acrylamide]
> 7.70	> 7.70	6.70 to 7.70	6.70 to 7.70	6.00 to 6.70	–	C=CC(=O)Nc1cc(Nc2nccc(-n3cc(CO)c(-c4ccccc4)n3)n2)c(OC)cc1N1CCOCC1 [Compound 91, N-(5-(4-(4-(hydroxymethyl)-3-phenyl-1H-pyrazol-1-yl)pyrimidin-2-ylamino)-4-methoxy-2-morpholinophenyl)acrylamide]
> 7.70	–	> 7.70	> 7.70	> 7.70	< 6.00	C=CC(=O)Nc1cc(Nc2nccc(-n3cc(CN(C)C)c(C(C)(C)C)n3)n2)c(OC)cc1N(C)C1COC1 [Compound 102, N-(5-(4-(3-tert-butyl-4-((dimethylamino)methyl)-1H-pyrazol-1-yl)pyrimidin-2-ylamino)-4-methoxy-2-(methyl(oxetan-3-yl)amino)phenyl)acrylamide]
> 7.70	> 7.70	> 7.70	> 7.70	> 7.70	–	C=CC(=O)Nc1cc(Nc2nccc(-n3cc(CN(C)C)c(C(C)C)n3)n2)c(OC)cc1N(C)CCOC [Compound 112, N-(5-(4-(4-((dimethylamino)methyl)-3-isopropyl-1H-pyrazol-1-yl)pyrimidin-2-ylamino)-4-methoxy-2-((2-methoxyethyl)(methyl)amino)phenyl)acrylamide]
> 7.70	> 7.70	> 7.70	> 7.70	> 7.70	–	C=CC(=O)Nc1cc(Nc2nccc(-n3cc(CN4CCC4)c(C(C)C)n3)n2)c(OC)cc1N(C)CCOC [Compound 113, N-(5-(4-(4-(azetidin-1-ylmethyl)-3-isopropyl-1H-pyrazol-1-yl)pyrimidin-2-ylamino)-4-methoxy-2-((2-methoxyethyl)(methyl)amino)phenyl)acrylamide]
> 7.70	> 7.70	> 7.70	> 7.70	> 7.70	–	C=CC(=O)Nc1cc(Nc2ncc(C)c(-n3cc(CN4CCC4)c(-c4ccccc4)n3)n2)c(OC)cc1N1CCOCC1 [Compound 121, N-(5-(4-(4-(azetidin-1-ylmethyl)-3-phenyl-1H-pyrazol-1-yl)-5-methylpyrimidin-2-ylamino)-4-methoxy-2-morpholinophenyl)acrylamide]
> 7.70	> 7.70	> 7.70	> 7.70	> 7.70	–	C=CC(=O)Nc1cc(Nc2ncc(C)c(-n3cc(CN4CCC4)c(C(C)C)n3)n2)c(OC)cc1N1CCOCC1 [Compound 125, N-(5-(4-(4-(azetidin-1-ylmethyl)-3-isopropyl-1H-pyrazol-1-yl)-5-methylpyrimidin-2-ylamino)-4-methoxy-2-morpholinophenyl)acrylamide]
